Laboratory results as given in patent publication US20180318311A1, “TRICYCLIC 2-QUINOLINONES AS ANTIBACTERIALS” (priority 2017, published 2018).
Converted amounts (≈) assume the structure as drawn. Structures can show the parent of a compound that is named as a salt. Where two headings read alike, the source gives them in different places.

How the values were obtained:
Format in all cases: cell-based
[1] = system: S. aureus ATCC 49951 (NB01006); assay: MIC by broth microdilution, S. aureus NB01006; details: Staphylococcus aureus, ATCC49951, CAMHB, 35° C., 20 hours, read-out: Antibacterial activity (MIC) NB01006
Description: (§1) Bacterial isolates were cultivated from −80° C. frozen stocks by overnight passages at 35° C. in ambient air on Mueller-Hinton agar plates (MHA, Becton Dickinson, Franklin Lakes, NB) with the exception of S. pneumoniae which was grown overnight at 35° C. in the presence of 5% CO2 on blood agar plates (tryptic soy agar with 5% sheep blood (Thermo Scientific, Waltham, Mass.) . The following quality control and wild type strains were obtained from the American Type Culture Collection (ATCC; Rockville, Md.) and are coded in the Novartis strain collection as indicated: E. coli ATCC 25922 (NB27001), E. faecalis ATCC 29212 (NB04001), S. aureus ATCC 49951 (NB01006) and S. pneumoniae ATCC […] (NB07001). […] P. aeruginosa NB52019, obtained from Queen's University (Kingston, Ontario, Canada), is the wild-type PAO1 strain.
(§2) Minimal Inhibitory Concentrations (MIC) were determined by the broth microdilution method in accordance with Clinical and Laboratories Institute (CLSI) guidelines. In brief, fresh bacterial overnight cultures were re-suspended in sterile saline, adjusted to a 0.5 McFarland turbidity standard and then diluted to yield a final inoculum of approximately 5×10^5 colony-forming units (CFU)/mL. All bacterial suspensions were prepared in cation adjusted Mueller-Hinton Broth (CAMHB; Becton Dickinson, Franklin Lakes, N.J.;) with the exception of S. pneumoniae which was prepared in CAMHB supplemented with 5% lysed horse blood (Hardy Diagnostics, Santa Maria, Calif.). Two-fold serial dilutions of compounds were prepared in 100% dimethyl sulfoxide (DMSO) at 100-fold the highest final assay concentration; the resulting dilution series of compounds were diluted 1:10 with sterile water. Ten μL of the drug dilution series in 10% DMSO was transferred to microtiter wells and 90 μL of bacterial suspension was inoculated into the wells. All inoculated microdilution trays were incubated in ambient air at 35° C. for 20 hours. Following incubation, assay plates were read in a microtiter plate reader at 600 nm and visually inspected to confirm the MIC endpoint well with the OD value. The lowest concentration of the compound that prevented visible growth was recorded as the MIC (in μg/mL).

[2] = system: E. faecalis ATCC 29212 (NB04001); assay: MIC by broth microdilution, E. faecalis NB04001; details: Enterococcus faecalis, ATCC29212, CAMHB, 35° C., 20 hours, read-out: Antibacterial activity (MIC) NB04001
Description: as §1, §2

[3] = system: S. aureus NB01006-AVR005, gyrA (S84L), grlA (580F) and grlB (E471K); assay: microbe, parasite or virus in culture; details: Staphylococcus aureus, 20 h, read-out: Antibacterial activity (MIC) NB01006-AVR005
Description: as §1, §2

[4] = system: E. coli ATCC 25922 (NB27001); assay: MIC by broth microdilution, E. coli NB27001; details: Escherichia coli, ATCC25922, CAMHB, 35° C., 20 hours, read-out: Antibacterial activity (MIC) NB27001
Description: as §1, §2

[5] = system: P. aeruginosa NB52019, wild-type PAO1 strain; assay: MIC by broth microdilution, P. aeruginosa NB52019; details: Pseudomonas aeruginosa, CAMHB, 35° C., 20 hours, read-out: Antibacterial activity (MIC) NB52019
Description: as §1, §2

[6] = system: S. pneumoniae ATCC 25922 (NB07001); assay: MIC by broth microdilution, S. pneumoniae NB07001; details: Streptococcus pneumoniae, read-out: Antibacterial activity (MIC) NB07001
Description: as §1, §2

[7] = system: S. aureus NB01080 fluoroquinolone-resistant clinical isolate; assay: MIC by broth microdilution, S. aureus NB01080; details: Staphylococcus aureus, CAMHB, 35° C., 20 hours, read-out: Antibacterial activity (MIC) NB01080
Description: as §1, §2

SMILES	MIC [1] [µg/mL]	MIC [2] [µg/mL]	MIC [3] [µg/mL]	MIC [4] [µg/mL]	MIC [5] [µg/mL]	MIC ([6]; ATCC25922, 20 h) [µg/mL]	MIC [7] [µg/mL]	MIC ([6]; ATCC25922, S. pneumoniae, CAMHB supplemented with 5% lysed horse blood, 35° C., 20 hours) [µg/mL]
C[C@H]1COc2c(N3CCCC4(CCN(C)C4)C3)c(F)cc3cc(C(=O)O)c(=O)n1c23 (mixture of isomers) [Example 1.70, (3S)-9-fluoro-3-methyl-10-(2-methyl-2,7-diazaspiro[4.5]decan-7-yl)-5-oxo-2,3-dihydro-5H-[1,4]oxazino[2,3,4-ij]quinoline-6-carboxylic acid]	1 to 32	> 32	> 32	> 32	> 32	1 to 32	> 32	
C[C@H]1COc2c(N3Cc4ccncc4C3)c(F)cc3cc(C(=O)O)c(=O)n1c23 [Example 1.15, (S)-10-(1,3-dihydro-2H-pyrrolo[3,4-c]pyridin-2-yl)-9-fluoro-3-methyl-5-oxo-2,3-dihydro-5H-[1,4]oxazino[2,3,4-ij]quinoline-6-carboxylic acid]	< 1	1 to 32 (≈ 2.62 to 83.9 µM)	1 to 32 (≈ 2.62 to 83.9 µM)	1 to 32 (≈ 2.62 to 83.9 µM)	> 32	< 1	1 to 32 (≈ 2.62 to 83.9 µM)	
CC(N)C1(F)CCN(c2c(F)cc3cc(C(=O)O)c(=O)n4c3c2OC[C@@H]4C)C1 (single isomer, unassigned) [Example 1.47]	< 1	1 to 32 (≈ 2.54 to 81.3 µM)	1 to 32 (≈ 2.54 to 81.3 µM)	1 to 32 (≈ 2.54 to 81.3 µM)	> 32	< 1	1 to 32 (≈ 2.54 to 81.3 µM)	
C[C@H]1COc2c(N3CC(CC4(N)CC4)C3)c(F)cc3cc(C(=O)O)c(=O)n1c23 [Example 1.76, (S)-10-(3-((1-aminocyclopropyl)methyl)azetidin-1-yl)-9-fluoro-3-methyl-5-oxo-2,3-dihydro-5H-[1,4]oxazino[2,3,4-ij]quinoline-6-carboxylic acid]	> 32	> 32	> 32	> 32	> 32	> 32	> 32	
C[C@H]1COc2c(N3CCC4(CC3)CNC4)c(F)cc3cc(C(=O)O)c(=O)n1c23 [Example 1.17, (S)-9-fluoro-3-methyl-5-oxo-10-(2,7-diazaspiro[3,5]nonan-7-yl)-2,3-dihydro-5H-[1,4]oxazino[2,3,4-ij]quinoline-6-carboxylic acid]	> 32	> 32	> 32	> 32	> 32	> 32	> 32	
C[C@H]1COc2c(N3CC[C@H](C4(N)CC4)C3)c(F)cc3cc(C(=O)O)c(=O)n1c23 [Example 1.35, (S)-10-((S)-3-(1-aminocyclopropyl)pyrrolidin-1-yl)-9-fluoro-3-methyl-5-oxo-2,3-dihydro-5H-[1,4]oxazino[2,3,4-ij]quinoline-6-carboxylic acid]	1 to 32 (≈ 2.58 to 82.6 µM)	1 to 32 (≈ 2.58 to 82.6 µM)	> 32	1 to 32 (≈ 2.58 to 82.6 µM)	> 32	1 to 32 (≈ 2.58 to 82.6 µM)	1 to 32 (≈ 2.58 to 82.6 µM)	
C[C@H]1COc2c(N3C[C@H]4[C@@H](C3)S(=O)(=O)C[C@@H]4N)c(F)cc3cc(C(=O)O)c(=O)n1c23 [Example 1.51, (S)-10-((3R,3aR,6aS)-3-amino-1,1-dioxidohexahydro-5H-thieno[2,3-c]pyrrol-5-yl)-9-fluoro-3-methyl-5-oxo-2,3-dihydro-5H-[1,4]oxazino[2,3,4-ij]quinoline-6-carboxylic acid]	> 32	> 32	> 32	> 32	> 32	> 32	> 32	
C[C@H]1COc2c(N3CC[C@@H](C4(N)CC4)C3)c(F)c(F)c3cc(C(=O)O)c(=O)n1c23 [Example 13.1, (S)-10-((R)-3-(1-aminocyclopropyl)pyrrolidin-1-yl)-8,9-difluoro-3-methyl-5-oxo-2,3-dihydro-5H-[1,4]oxazino[2,3,4-ij]quinoline-6-carboxylic acid hydrochloride salt]	< 1	< 1	< 1	< 1	1 to 32	< 1	< 1	
C[C@H]1COc2c(N3CC[C@@H](C4(N)CCC4)C3)c(F)c(F)c3cc(C(=O)O)c(=O)n1c23 [Example 13.8, (S)-10-((R)-3-(1-aminocyclobutyl)pyrrolidin-1-yl)-8,9-difluoro-3-methyl-5-oxo-2,3-dihydro-5H-[1,4]oxazino[2,3,4-ij]quinoline-6-carboxylic acid]	< 1	< 1	< 1	1 to 32 (≈ 2.38 to 76.3 µM)	1 to 32 (≈ 2.38 to 76.3 µM)	< 1	< 1	
CC1Cc2c(N3CCNCC3)c(F)cc3cc(C(=O)O)c(=O)n1c23 (stereo not shown) [Example 9.3, 8-fluoro-2-methyl-4-oxo-9-(piperazin-1-yl)-1,2-dihydro-4H-pyrrolo[3,2,1-ij]quinoline-5-carboxylic acid]	> 32	> 32	> 32	1 to 32 (≈ 3.02 to 96.6 µM)	> 32		> 32	> 32
C[C@H]1COc2c(N3CCCN(CC(F)F)CC3)c(F)cc3cc(C(=O)O)c(=O)n1c23 [Example 1.54, (S)-10-(4-(2,2-difluoroethyl)-1,4-diazepan-1-yl)-9-fluoro-3-methyl-5-oxo-2,3-dihydro-5H-[1,4]oxazino[2,3,4-ij]quinoline-6-carboxylic acid]	1 to 32 (≈ 2.35 to 75.2 µM)	> 32	> 32	> 32	> 32	> 32	> 32	
COc1cc2cc(C(=O)O)c(=O)n3c2c(c1N1CC[C@@H](C2(N)CC2)C1)OC[C@@H]3C [Example 16, (S)-10-((R)-3-(1-aminocyclopropyl)pyrrolidin-1-yl)-9-methoxy-3-methyl-5-oxo-2,3-dihydro-5H-[1,4]oxazino[2,3,4-ij]liquinoline-6-carboxylic acid formate salt]	> 32	> 32	> 32	> 32	> 32	1 to 32	> 32	
C[C@H]1CCOc2c(N3CC[C@@H](C4(N)CC4)C3)c(F)cc3cc(C(=O)O)c(=O)n1c23 [Example 1.24, (S)-11-((R)-3-(1-aminocyclopropyl)pyrrolidin-1-yl)-10-fluoro-4-methyl-6-oxo-3,4-dihydro-2H,6H-[1,4]oxazepino[2,3,4-ij]quinoline-7-carboxylic acid]	< 1	< 1	1 to 32 (≈ 2.49 to 79.7 µM)	1 to 32 (≈ 2.49 to 79.7 µM)	> 32	< 1	1 to 32 (≈ 2.49 to 79.7 µM)	
C[C@H]1COc2c(N3CC[C@@H](C4(N)CCCC4)C3)c(F)cc3cc(C(=O)O)c(=O)n1c23 [Example 1.75, (S)-10-((R)-3-(1-aminocyclopentyl)pyrrolidin-1-yl)-9-fluoro-3-methyl-5-oxo-2,3-dihydro-5H-[1,4]oxazino[2,3,4-ij]quinoline-6-carboxylic acid]	< 1	1 to 32 (≈ 2.41 to 77 µM)	1 to 32 (≈ 2.41 to 77 µM)	1 to 32 (≈ 2.41 to 77 µM)	> 32	< 1	1 to 32 (≈ 2.41 to 77 µM)	
CCC(N)C1CCN(c2c(F)cc3cc(C(=O)O)c(=O)n4c3c2OC[C@@H]4C)C1 (single isomer, unassigned) [Example 1.45]	< 1	< 1	1 to 32 (≈ 2.57 to 82.2 µM)	1 to 32 (≈ 2.57 to 82.2 µM)	> 32	< 1	< 1	
C[C@H]1COc2c(N3CC4CCC(N)C4C3)c(F)cc3cc(C(=O)O)c(=O)n1c23 (single isomer, unassigned) [Example 1.28]	1 to 32 (≈ 2.58 to 82.6 µM)	1 to 32 (≈ 2.58 to 82.6 µM)	> 32	> 32	> 32	< 1	> 32	
